Laboratory results: paper PMC2685978, “Evaluation of Wuchereria bancrofti GST as a Vaccine Candidate for Lymphatic Filariasis” (PLoS Neglected Tropical Diseases, 2009)

Biological target: T1, rWbGST (Wuchereria bancrofti, UniProt Q86LL8)
T1 construct: about 28 kDa with tag
T1 sequence (Q86LL8 1-208): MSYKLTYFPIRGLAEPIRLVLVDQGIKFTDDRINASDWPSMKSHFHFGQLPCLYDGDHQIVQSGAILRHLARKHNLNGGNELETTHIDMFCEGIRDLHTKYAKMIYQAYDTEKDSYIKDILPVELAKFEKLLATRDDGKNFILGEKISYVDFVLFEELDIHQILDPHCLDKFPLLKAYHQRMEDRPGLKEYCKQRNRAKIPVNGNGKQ
Assay: spectrophotometric conjugation assay at […] nm
Assay type: biochemical
Settings: 1.0 mM CDNB, 1.0 mM GSH, 100 mM phosphate, pH 6.5; only specific activity printed

O=[N+]([O-])c1ccc(Cl)c([N+](=O)[O-])c1 [CDNB, 1-chloro-2,4-dinitrobenzene]
spectrophotometric conjugation assay at 340 nm: GST enzyme activity was determined using CDNB and GSH substrates
